Measurements reported in patent publication US8471005B2 (Cephalon, Inc., priority 2008, dated 2013).
Read-outs that look alike come from different tables or passages of the source.

Assays:
ALK = biological target: T1, ALK (Homo sapiens, UniProt Q9UM73); assay: ALK Kinase Assay (ELISA/TRF, PLC-γ substrate); format: biochemical; details: read-out: ALK Potency
T1 construct: host or cells: baculovirus expression system
Outline: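 PLC-γ substrate coated at 10 μg/mL in TBS; reaction started with 30 ng/ml ALK, run 15 min at 37° C. Phosphoproduct detected by TRF with Eu-N1-labeled PT66 anti-phosphotyrosine antibody. IC50 from sigmoidal variable-slope fit of percent inhibition versus log concentration.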

JAK2 = biological target: T2, JAK2 (Homo sapiens, UniProt O60674); assay: Recombinant Human JAK2 Kinase Assay (TRF); format: biochemical; details: read-out: JAK2 Potency
T2 construct: host or cells: baculovirus expression system
Outline: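 Baculovirus-expressed JAK2 (15 ng/ml) phosphorylated a biotinylated 15-mer peptide captured on Neutravidin-coated plates, in 20 mM HEPES pH 7.2 with 0.2 μM ATP, 1 mM MnCl2, 0.1% BSA and 2.5% DMSO. Reaction ran 20 min at room temperature; phosphopeptide was detected by time-resolved fluorescence with Eu-N1-labelled PY100 antibody.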

[1] = ALK kinase inhibition, 1 μM ATP
[2] = JAK2 kinase inhibition, 0.2 μM ATP

T1 sequence (Q9UM73 19-1620): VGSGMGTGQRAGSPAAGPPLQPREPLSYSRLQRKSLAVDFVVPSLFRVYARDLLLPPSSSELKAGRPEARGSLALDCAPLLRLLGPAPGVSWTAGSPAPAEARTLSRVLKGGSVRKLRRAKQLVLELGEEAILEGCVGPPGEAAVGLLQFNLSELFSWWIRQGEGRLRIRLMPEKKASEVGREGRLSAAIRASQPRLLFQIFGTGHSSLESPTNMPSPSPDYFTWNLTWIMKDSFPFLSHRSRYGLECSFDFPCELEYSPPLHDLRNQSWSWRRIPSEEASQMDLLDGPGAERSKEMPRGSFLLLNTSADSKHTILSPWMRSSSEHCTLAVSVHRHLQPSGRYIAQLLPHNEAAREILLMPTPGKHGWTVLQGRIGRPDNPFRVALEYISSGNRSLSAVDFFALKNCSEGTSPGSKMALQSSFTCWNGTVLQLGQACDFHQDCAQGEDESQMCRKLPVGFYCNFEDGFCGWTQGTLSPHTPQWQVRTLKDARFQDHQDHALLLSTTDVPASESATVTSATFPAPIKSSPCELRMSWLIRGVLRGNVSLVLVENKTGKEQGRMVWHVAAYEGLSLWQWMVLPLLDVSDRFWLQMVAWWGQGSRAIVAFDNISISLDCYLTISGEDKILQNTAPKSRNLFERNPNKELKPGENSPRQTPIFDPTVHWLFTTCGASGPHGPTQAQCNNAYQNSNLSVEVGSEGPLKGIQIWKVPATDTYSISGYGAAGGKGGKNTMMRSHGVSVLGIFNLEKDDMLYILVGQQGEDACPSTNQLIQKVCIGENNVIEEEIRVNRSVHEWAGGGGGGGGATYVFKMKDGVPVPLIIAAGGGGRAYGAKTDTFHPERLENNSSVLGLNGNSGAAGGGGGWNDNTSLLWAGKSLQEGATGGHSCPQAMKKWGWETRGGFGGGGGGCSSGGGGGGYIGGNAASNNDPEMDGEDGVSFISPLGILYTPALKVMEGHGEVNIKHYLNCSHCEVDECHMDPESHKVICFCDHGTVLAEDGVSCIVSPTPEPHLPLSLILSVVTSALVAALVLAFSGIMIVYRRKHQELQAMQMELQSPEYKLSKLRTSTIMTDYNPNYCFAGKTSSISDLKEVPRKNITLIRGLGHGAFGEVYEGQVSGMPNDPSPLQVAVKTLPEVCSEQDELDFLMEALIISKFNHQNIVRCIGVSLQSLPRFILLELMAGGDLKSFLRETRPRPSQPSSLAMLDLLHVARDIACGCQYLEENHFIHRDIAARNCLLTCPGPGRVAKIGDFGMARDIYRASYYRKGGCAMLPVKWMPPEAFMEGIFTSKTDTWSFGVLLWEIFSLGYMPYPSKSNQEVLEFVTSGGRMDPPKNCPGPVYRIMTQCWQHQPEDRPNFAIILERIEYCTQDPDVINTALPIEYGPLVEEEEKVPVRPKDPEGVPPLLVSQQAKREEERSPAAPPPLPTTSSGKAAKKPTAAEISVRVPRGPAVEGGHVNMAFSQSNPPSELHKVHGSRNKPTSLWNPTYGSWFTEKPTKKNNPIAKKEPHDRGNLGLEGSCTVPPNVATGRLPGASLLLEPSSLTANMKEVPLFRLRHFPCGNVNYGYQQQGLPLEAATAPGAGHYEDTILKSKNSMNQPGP
T2 sequence (O60674 whole entry): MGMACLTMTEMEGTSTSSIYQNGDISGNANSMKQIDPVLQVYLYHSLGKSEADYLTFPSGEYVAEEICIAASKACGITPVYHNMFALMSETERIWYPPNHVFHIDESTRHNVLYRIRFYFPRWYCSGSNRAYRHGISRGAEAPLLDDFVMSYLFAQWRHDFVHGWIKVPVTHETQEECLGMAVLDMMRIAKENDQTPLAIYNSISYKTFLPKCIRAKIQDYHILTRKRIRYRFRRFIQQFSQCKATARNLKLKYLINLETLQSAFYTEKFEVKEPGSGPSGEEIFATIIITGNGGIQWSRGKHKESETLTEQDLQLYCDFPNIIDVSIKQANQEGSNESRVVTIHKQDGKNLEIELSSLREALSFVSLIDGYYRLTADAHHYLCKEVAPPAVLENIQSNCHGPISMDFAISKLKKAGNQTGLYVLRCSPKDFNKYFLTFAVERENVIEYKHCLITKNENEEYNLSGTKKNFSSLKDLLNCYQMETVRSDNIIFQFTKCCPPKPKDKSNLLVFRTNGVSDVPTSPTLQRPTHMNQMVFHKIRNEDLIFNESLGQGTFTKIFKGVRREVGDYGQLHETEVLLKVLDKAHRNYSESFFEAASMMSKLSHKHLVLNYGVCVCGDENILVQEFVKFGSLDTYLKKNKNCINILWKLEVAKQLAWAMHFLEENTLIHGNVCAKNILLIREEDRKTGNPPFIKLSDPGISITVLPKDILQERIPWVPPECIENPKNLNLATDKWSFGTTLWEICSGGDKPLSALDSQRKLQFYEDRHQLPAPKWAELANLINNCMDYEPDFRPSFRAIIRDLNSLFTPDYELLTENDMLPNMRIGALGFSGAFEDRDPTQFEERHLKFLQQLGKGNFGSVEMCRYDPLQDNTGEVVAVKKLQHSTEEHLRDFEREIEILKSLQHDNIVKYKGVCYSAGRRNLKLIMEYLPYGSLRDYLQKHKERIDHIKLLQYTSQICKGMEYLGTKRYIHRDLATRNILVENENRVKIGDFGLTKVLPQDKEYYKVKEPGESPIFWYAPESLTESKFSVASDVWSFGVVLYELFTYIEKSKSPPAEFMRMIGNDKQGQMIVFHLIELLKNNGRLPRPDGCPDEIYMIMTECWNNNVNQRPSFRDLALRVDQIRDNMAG

IC50 (ALK; [1])	IC50 (JAK2; [2])	IC50 (ALK; ALK Kinase Inhibition)	IC50 (JAK2; JAK2 Kinase Inhibition)	Structure (SMILES)
< 100 nM	100 to 1000 nM	–	–	COc1cc(N2CCN(C[C@@H](O)CO)CC2)ccc1Nc1ncc2ccc(-c3cc(Cl)ccc3OC)n2n1 [Example 757, (R)-3-(4-{4-[7-(5-Chloro-2-methoxy-phenyl)-pyrrolo[2,1-f][1,2,4]triazin-2-ylamino]-3-methoxy-phenyl}-piperazin-1-yl)-propane-1,2-diol]
–	–	100 to 1000 nM	< 100 nM	COc1ccc(Cl)cc1-c1ccc2cnc(Nc3cc(OC)c(OC)c(OC)c3)nn12 [Example 141, [7-(5-Chloro-2-methoxy-phenyl)-pyrrolo[2,1-f][1,2,4]triazin-2-yl]-(3,4,5-trimethoxy-phenyl)-amine]
< 100 nM	< 100 nM	–	–	COc1ccccc1-c1ccc2cnc(Nc3ccc(C4CCN(C(=O)C5CCN(C)CC5)CC4)cc3)nn12 [Example 500, (4-{4-[7-(2-Methoxy-phenyl)-pyrrolo[2,1-f][1,2,4]triazin-2-ylamino]-phenyl}-piperidin-1-yl)-(1-methyl-piperidin-4-yl)-methanone]
–	–	1000 to 10000 nM	< 100 nM	c1cncc(-c2ccc3cnc(Nc4ccc(N5CCOCC5)cc4)nn23)c1 [Example 11, (4-Morpholin-4-yl-phenyl)-(7-pyridin-3-yl-pyrrolo[2,1-f][1,2,4]triazin-2-yl)-amine]
< 100 nM	100 to 1000 nM	–	–	COc1cc2c(cc1Nc1ncc3ccc(-c4cccc(S(=O)(=O)NC(C)(C)C)c4)n3n1)CCN(CCO)CC2 [Example 699]
1000 to 10000 nM	< 100 nM	–	–	C1=C(c2ccc3cnc(Nc4ccc(N5CCOCC5)cc4)nn23)CCSC1 [Example 613, [7-(3,6-Dihydro-2H-thiopyran-4-yl)-pyrrolo[2,1-f][1,2,4]triazin-2-yl]-(4-morpholin-4-yl-phenyl)-amine]
–	–	> 10000 nM	< 100 nM	CC1(C)CCC(=O)Nc2cc(Nc3ncc4cc5ccccc5n4n3)ccc21 [Example 265, 5,5-Dimethyl-8-([1,2,4]triazino[1,6-a]indol-2-ylamino)-1,3,4,5-tetrahydro-benzo[b]azepin-2-one]
–	–	100 to 1000 nM	< 100 nM	COc1ccccc1-c1ccc2cnc(Nc3cc[nH]n3)nn12 [Example 122, [7-(2-Methoxy-phenyl)-pyrrolo[2,1-f][1,2,4]triazin-2-yl]-(1H-pyrazol-3-yl)-amine]
–	–	100 to 1000 nM	< 100 nM	NC(=O)CN1CCC(c2ccc(Nc3ncc4ccc(-c5ccccc5O)n4n3)cc2)CC1 [Example 1427, 2-(4-{4-[7-(2-Hydroxy-phenyl)-pyrrolo[2,1-f][1,2,4]triazin-2-ylamino]-phenyl}-piperidin-1-yl)-acetamide]
–	–	1000 to 10000 nM	< 100 nM	COc1ccc(Nc2ncc3ccc(-c4cccc(Cl)c4)n3n2)cc1OC [Example 152, [7-(3-Chloro-phenyl)-pyrrolo[2,1-f][1,2,4]triazin-2-yl]-(3,4-dimethoxy-phenyl)-amine]
> 10000 nM	< 100 nM	–	–	c1cncc(-c2ccc3cnc(Nc4ccn(CCN5CCOCC5)n4)nn23)c1 [Example 1184, [1-(2-Morpholin-4-yl-ethyl)-1H-pyrazol-3-yl]-(7-pyridin-3-yl-pyrrolo[2,1-f][1,2,4]triazin-2-yl)-amine]
< 100 nM	1000 to 10000 nM	–	–	COc1cc(CN2CCN(C(=O)CN)CC2)ccc1Nc1ncc2ccc(-c3ccccc3N(C)S(C)(=O)=O)n2n1 [Example 1241, N-[2-(2-{4-[4-(2-Amino-acetyl)-piperazin-1-ylmethyl]-2-methoxy-phenylamino}-pyrrolo[2,1-f][1,2,4]triazin-7-yl)-phenyl]-N-methyl-methanesulfonamide]
–	–	1000 to 10000 nM	< 100 nM	c1cc(-c2ccc3cnc(Nc4ccc(N5CCOCC5)cc4)nn23)ccn1 [Example 4, (4-Morpholin-4-yl-phenyl)-(7-pyridin-4-yl-pyrrolo[2,1-f][1,2,4]triazin-2-yl)-amine]
100 to 1000 nM	< 100 nM	–	–	CN1CCN(c2ccc(Nc3ncc4ccc(NCc5cccc([N+](=O)[O-])c5)n4n3)cc2)CC1 [Example 1163, N(2)-[4-(4-Methyl-piperazin-1-yl)-phenyl]-N(7)-(3-nitro-benzyl)-pyrrolo[2,1-f][1,2,4]triazine-2,7-diamine]
100 to 1000 nM	< 100 nM	–	–	CN1CCN(c2ccc(Nc3ncc4ccc(-c5ccc(N)nc5)n4n3)cc2)CC1 [Example 1118, [7-(6-Amino-pyridin-3-yl)-pyrrolo[2,1-f][1,2,4]triazin-2-yl]-[4-(4-methyl-piperazin-1-yl)-phenyl]-amine]
1000 to 10000 nM	< 100 nM	–	–	CC(C)(C)NS(=O)(=O)c1cccc(-c2ccc3cnc(Nc4ccc5nc(CO)[nH]c5c4)nn23)c1 [Example 1066, N-tert-Butyl-3-[2-(2-hydroxymethyl-3H-benzoimidazol-5-ylamino)-pyrrolo[2,1-f][1,2,4]triazin-7-yl]-benzenesulfonamide]
> 10000 nM	100 to 1000 nM	–	–	CN1CCN(c2cccc(Nc3ncc4ccc(NCc5ccncc5)n4n3)c2)CC1 [Example 1167, N(2)-[3-(4-Methyl-piperazin-1-yl)-phenyl]-N(7)-pyridin-4-ylmethyl-pyrrolo[2,1-f][1,2,4]triazine-2,7-diamine]
< 100 nM	< 100 nM	–	–	COc1ccccc1-c1ccc2cnc(Nc3ccc4c(c3)CCN(C)C4)nn12 [Example 915, [7-(2-Methoxy-phenyl)-pyrrolo[2,1-f][1,2,4]triazin-2-yl]-(2-methyl-1,2,3,4-tetrahydro-isoquinolin-6-yl)-amine]
< 100 nM	< 100 nM	–	–	CN1CCC(c2ccc(Nc3ncc4ccc(-c5ccc(S(C)(=O)=O)cc5)n4n3)cc2)CC1 [Example 1119, [7-(4-Methanesulfonyl-phenyl)-pyrrolo[2,1-f][1,2,4]triazin-2-yl]-[4-(1-methyl-piperidin-4-yl)-phenyl]-amine]
–	–	100 to 1000 nM	< 100 nM	COc1ccc(Cl)cc1-c1ccc2cnc(Nc3ccc(N4CCOCC4)cc3)nn12 [Example 3, [7-(5-Chloro-2-methoxy-phenyl)-pyrrolo[2,1-f][1,2,4]triazin-2-yl]-(4-morpholin-4-yl-phenyl)-amine]
–	–	100 to 1000 nM	< 100 nM	CC(C)(C)NS(=O)(=O)c1cccc(-c2ccc3cnc(Nc4ccc5nc(CN6CCN(CCO)CC6)[nH]c5c4)nn23)c1 [Example 1520, N-tert-Butyl-3-(2-{2-[4-(2-hydroxy-ethyl)-piperazin-1-ylmethyl]-3H-benzimidazol-5-ylamino}-pyrrolo[2,1-f][1,2,4]triazin-7-yl)-benzenesulfonamide]
1000 to 10000 nM	1000 to 10000 nM	–	–	COc1cc(C2CCN(CC(N)=O)CC2)ccc1Nc1ncc2cc(C)c(-c3ccccc3N(C)S(C)(=O)=O)n2n1 [Example 515, 2-[4-(4-{7-[2-(Methanesulfonyl-methyl-amino)-phenyl]-6-methyl-pyrrolo[2,1-f][1,2,4]triazin-2-ylamino}-3-methoxy-phenyl)-piperidin-1-yl]-acetamide]
< 100 nM	< 100 nM	–	–	COc1cc(N2CCC(N3CC[C@@H](O)C3)CC2)ccc1Nc1ncc2ccc(-c3ccccc3N(C)S(C)(=O)=O)n2n1 [Example 478, N-[2-(2-{4-[4-((R)-3-Hydroxy-pyrrolidin-1-yl)-piperidin-1-yl]-2-methoxy-phenylamino}-pyrrolo[2,1-f][1,2,4]triazin-7-yl)-phenyl]-N-methyl-methanesulfonamide]
